Results: patent US8247613B2, “Methods and compositions for the synergistic activation of latent HIV” (The J. David Gladstone Institutes, priority 2006, dated 2012)

What was measured:
[1] = cited from earlier work
[2] = system: latent HIV expression in J-Lat6.3kRed2 cells; type: cell-based
Protocol: In a similar experiment, J-Lat6.3kRed2 cells, a modified cell line derived from J-Lat6.3 containing an integrated kB-DsRed2 reporter, was used. J-Lat6.3kRed2 cells were counted and adjusted to 1×10^6 cells/ml. 80 μl aliquots were pipetted in a 96-well u-bottomed plate. Two-fold serial dilutions of 4, 2, and 1 μM trichostatin A (TSA) were made and added to the cells at final concentrations of 400 nM, 200 nM, and 100 nM, respectively. Three-fold serial dilutions of 100, 33, 11, 3.7 μM prostratin were made and added to cells at final concentrations of 10 μM, 3.3 μM, 1.1 μM, and 0.37 μM (0.4 μM in FIG. 1C), respectively. Samples were mixed by pipetting, returned to a 37° C. incubator with 5% CO2 and 90% humidity for 20 hours, HIV-LTR-driven expression of GFP was assessed by flow cytometry as described above.
In order to test a possible synergistic effect of additional histone deacetylase inhibitors, the effect of valproic acid in combination with prostratin was analyzed. J-Lat6.3kRed2 cells were adjusted to 1×10^6 cells/ml. 80 μl cell aliquots were pipetted in a 96-well u-bottomed plate. […] HIV-LTR-driven expression of GFP was assessed by flow cytometry as described above.

J-Lat6.3kRed2 cells = experiment: Cell viability assay (flow cytometry light scatter), J-Lat6.3kRed2 cells; type: cell-based
Protocol: (§1) Following stimulation, cells were cultured for 16 hours at 37° C. 90% humidity, 5% CO2. Cells were then analyzed by flow cytometry for viability.
(§2) Cells were scored as viable if they were detected in a characteristically “live” region of light scatter and defraction as measured by flow cytometry.
(§3) As described herein, it is known in the art that high concentrations of prostratin exert some toxic effects on cells. Thus, using the same experimental set-up as described in Example 2, above, cell viability was determined. Cell viability were quantitated as described above. Using J-Lat 6.3 cells and 8.4 T-cells, it was observed that 2 μM prostratin induced cell death in about 50% of the cells. […] In this experiment, cells were incubated with prostratin for about 20 hours, whereas J-Lat 6.3 cells and 8.4 T-cells (in FIGS. 2A and 2B) were incubated with prostratin for 36 hours.
As described in Example 3 for TSA, the effect of valproic acid on blocking prostratin-induced cell death was analyzed using the same experimental set-up as described in Example 4.

[3] = system: latent HIV expression in J-Lat 9.2 cells; experiment: Tat transfection assay, latent HIV-driven GFP expression in J-Lat 9.2 cells; type: cell-based; conditions: FLAG-Tat transfected J-Lat 9.2 cells (FIG. 6); result similar to Example 6
[4] = system: latent HIV expression in J-Lat 6.3 cells; experiment: HIV-LTR-driven expression of GFP (flow cytometry) in J-Lat 6.3 cells; type: cell-based; conditions: 16 hours; for activation of latent HIV expression (GFP-positive cells): J-Lat 6.3 cells
Protocol: (§4) J-Lat 6.3, J-Lat 8.4 T-cells, and J-Lat 9.2 cells are Jurkat T cell lines containing integrated but transcriptionally latent HIV proviruses. These J-Lat cells contain wild-type Tat and TAR and appear to be highly representative of the latently infected cells present in vivo (Williams et al., 2004, J Biol Chem 279(40):42008-42017).
(§5) J-Lat 6.3 T cells, J-Lat 8.4 T-cells and J-Lat 9.2 T cells were obtained from Jordan et al., (Jordan et al., 2003, EMBO J 22(8):1868-1877). J-Lat cells were cultured in RPMI supplemented with 10% fetal calf serum (FCS) and penicillin/streptomycin and L-glutamine described (Williams et al., 2004, J Biol Chem 279(40):42008-42017; Williams et al., 2006, EMBO J 25:139-149).
(§6) The J-Lat T-cell clones used herein are infected with full-length HIV proviruses and contain the Aequorea victoria green fluorescent protein (GFP) gene in lieu of Net thus permitting epifluorescence monitoring of viral transcriptional activity. Under basal conditions, little or no GFP expression is detected; however, transcriptional activation of the latent provirus leads to GFP expression, which can be detected at the single-cell level by flow cytometry. Flow cytometry analysis and FACS was essentially performed as described (Williams et al., 2004, J Biol Chem 279(40):42008-42017).
(§7) Cells were analyzed for GFP-fluorescence and general viability characteristics on a FACSCalibur flow cytometer (Becton Dickinson). Data were analyzed with FlowJo (Treesoft) flow cytometry analysis software.
(§8) J-Lat 6.3 and 8.4 T-cells cultured in RPMI supplemented with 10% fetal calf serum (FCS) and penicillin/streptomycin were counted and adjusted to 1×10^6 cells/ml. 80 μl aliquots of J-Lat 6.3 and 8.4 T-cells, respectively, were pipetted in a 96-well u-bottomed plate. […] Then HIV-LTR-driven expression of GFP was assessed by flow cytometry using a Beckton Dickenson FACScalibur as described above. […] Cells with greater GFP fluorescence than a non-GFP expressing Jurkat control cells were considered GFP-positive.

J-Lat 8.4 T-cells = experiment: Cell viability assay (flow cytometry light scatter), J-Lat 8.4 T-cells; type: cell-based
Protocol: as §1, §2, §3

[5] = system: latent HIV expression in J-Lat 6.3 cells; experiment: Tat transfection assay, latent HIV-driven GFP expression in J-Lat 6.3 cells; type: cell-based; conditions: for effect on Tat-induced latent HIV-driven expression of GFP: coadministration with Tat (FLAG-Tat transfected cells), 16 hours, J-Lat 6.3 cells (FIG. 5)
Protocol: 10^6 J-Lat 6.3 cells cultured in RPMI+10% fetal calf serum (FCS) and penicillin/streptomycin were pelleted by centrifugation and resuspended in 0.4 mL RPMI without serum. Cell suspension was mixed with 1 μg of pMACS-kk H2kk expression vector DNA (Miltenyi), and 10 μg of pCMV4 (Andersson et al., 1989, J Biol Chem 264 (14):8222-8229), or 10 μg pCMV4-FLAG-Tat expression vector (gift of Eric Verdin), transferred to a 0.4 cm gap electroporation cuvette (Stratagene), and electroporated at 975 μF, […] for ˜25×10^−3 seconds. Electroporated cells were resuspended in 4 mL medium, and returned to cell culture for 48 hours. 90 μl aliquots of each sample were distributed to U-bottomed 96-well plates and 10 μl of 200 ng/mL TNF-α (Biosource), 10 μl of 1 mM Trichostatin A (Biomol), or 10 μl of RPMI. For 30′-pulse TNF-α stimulation experiments, 10 μl of 200 ng/mL TNF-α was added to 90 μl cell suspension for 30 minutes, cells were transferred to a V-bottomed 96 well plate and centrifuged at […] for 3 minutes. Supernatant was removed and replaced, and procedure was repeated 2×. Cells were resuspended in 100 μl fresh RPMI with 10% serum and penicillin/streptomycin. 16 hours after treatment, cells were pelleted by centrifugation, and resuspended in 50 μl PBS+1:100 dilution of streptavidin-conjugated anti-H2kk antibody. Samples were incubated 10 minutes, diluted in 200 μl PBS, pelleted by centrifugation, and supernatant removed. […] Samples were analyzed by flow cytometry using a Beckton Dickinson FACSCalibur. Cells were analyzed using FlowJo (TreeSoft) flow cytometry analysis software. Live cells were identified by characteristic light scatter and defraction and exclusively analyzed. Cells with APC fluorescence greater that untransfected cells stained with biotin-APC were considered to be H2kk-positive, and to have been successfully transfected. […]

[6] = system: latent HIV expression in J-Lat 8.4 T-cells; experiment: HIV-LTR-driven expression of GFP (flow cytometry) in J-Lat 8.4 T-cells; type: cell-based; conditions: 16 hours; for activation of latent HIV expression (GFP-positive cells): J-Lat 8.4 T-cells
Protocol: as §4, §5, §6, §7, §8

J-Lat 6.3 cells = experiment: Cell viability assay (flow cytometry light scatter), J-Lat 6.3 cells; type: cell-based
Protocol: as §1, §2, §3

[7] = concentration of >500 nM for more than 2 days; cited from earlier work
latent HIV expression = conditions: more potent than prostratin; cited from earlier work
[8] = co-administration of 100 nM TSA with 2 μM prostratin

CCCC(CCC)C(=O)O [valproic acid, 2-propylpentanoic acid]
time of peak serum levels ([1]; after a single oral dose): 1 to 4 h
serum half-life ([1]; in vivo): 6 to 16 h
absorption after oral administration ([1]; oral): rapidly absorbed
potentiation of the effect of prostratin on latent HIV expression ([2]; valproic acid 0.3 mM with prostratin 0.37 μM, 18 hours, J-Lat6.3kRed2 cells (FIG. 3)): 6-7 fold
effect on prostratin-induced cell death (J-Lat6.3kRed2 cells; valproic acid at all tested concentrations (0.3-3 mM), prostratin 10 μM, J-Lat6.3kRed2 cells (FIG. 4)): blocked prostratin-induced cell death

CC(/C=C/C(=O)NO)=C\[C@@H](C)C(=O)c1ccc(N(C)C)cc1 [TSA, [R-(E,E)]-7-[4-(Dimethylamino)phenyl]-N-hydroxy-4,6-dimethyl-7-oxo-2,4-heptadienamide]
synergistic effect on activation of latent HIV expression ([2]; 370 (400) nM TSA in combination with 0.4 μM prostratin, 20 hours, J-Lat6.3kRed2 cells (FIG. 1C)): about 16 fold
effect on the activation of latent HIV expression ([2]; TSA 100-400 nM with prostratin 0.37-10 μM, 20 hours, J-Lat6.3kRed2 cells): drastic effect
activation of expression of latent HIV (GFP) together with Tat [3]: Synergizes with Tat
activation of latent HIV expression (GFP-positive cells) ([4]; TSA 100 nM administered alone): no significant effect
potentiation of the effect of prostratin on latent HIV expression ([4]; TSA 100 nM with prostratin 2 μM, J-Lat 6.3 cells (FIG. 1A)): 5-6 fold
effect on prostratin-induced cell death (J-Lat 8.4 T-cells; [8]): almost completely inhibited
effect on Tat-induced latent HIV-driven expression of GFP [5]: strongly enhanced
activation of latent HIV expression (GFP-positive cells) ([6]; TSA 100 nM administered alone): no significant effect
potentiation of the effect of prostratin on latent HIV expression ([6]; TSA 100 nM with prostratin 2 μM, J-Lat 8.4 T-cells (FIG. 1B)): 6-7 fold
effect on prostratin-induced cell death (J-Lat 6.3 cells; [8]): almost completely inhibited
effect on prostratin-induced cell death (J-Lat6.3kRed2 cells; TSA with prostratin up to 10 μM, about 20 hours, J-Lat6.3kRed2 cells (FIG. 2C)): inhibited prostratin-induced cell death

CC(=O)O[C@@]12C[C@@H](C)[C@@]3(O)[C@@H](C=C(CO)C[C@]4(O)C(=O)C(C)=C[C@@H]34)[C@@H]1C2(C)C [prostratin, 12-deoxyphorbol 13-acetate]
activation of latent HIV expression (GFP-positive cells) ([4]; prostratin 2 μM alone): induced the activation of latent HIV expression
prostratin-induced cell death (cells) (J-Lat 8.4 T-cells; 2 μM prostratin, incubated 36 hours (FIG. 2B)): about 50%
activation of latent HIV expression (GFP-positive cells) ([6]; prostratin 2 μM alone): induced the activation of latent HIV expression
prostratin-induced cell death (cells) (J-Lat 6.3 cells; 2 μM prostratin, incubated 36 hours (FIG. 2A)): about 50%
toxicity (growth arrest and cell death) [7]: substantial growth arrest and cell death

TNF-α
activation of expression of latent HIV (GFP) together with Tat [3]: Synergizes with Tat
expression of latent HIV (GFP) ([5]; 30-minute pulse treatment of TNF-α, without Tat, J-Lat 6.3 cells): weak expression
effect on Tat-induced latent HIV-driven expression of GFP [5]: strongly enhanced

CC1=C[C@H]2[C@@]3(O)[C@H](C)C[C@]4(OC(=O)Cc5ccccc5)C([C@@H]3C=C(CO)C[C@]2(O)C1=O)C4(C)C (stereo partly shown) [DPP, 12-deoxyphorbol 13-phenylacetate]
potency relative to prostratin (latent HIV expression): 20-40 fold
